# Laboratory results as given in patent publication US10550095B2, “Cancerous cell growth inhibiting compounds” (WISYS TECHNOLOGY FOUNDATION, INC., priority 2016, dated 2020).
# “And” between values parts separate entries of the source, which are not always exact repeats. Identical values can stand only once. “Also recorded” adds a separate entry of the source.
# Columns and labels:
# [1] = system: zebrafish embryos; experiment: Inhibition of melanin synthesis in zebrafish embryos, treated 24-76 hpf (Protocol 1); format: in vivo; conditions: for pigmentation in comparison to the control group: zebrafish embryos treated 24 to 76 hpf
# Method: (§1) The testing protocols for these compounds are as follows: • a. […] The embryos were monitored and imaged throughout their development to track the development of melanin pigment relative to a control group to which water was administered (Protocol 1). • b. […] The embryos were again monitored and imaged throughout their development relative to a control group to which water was administered (Protocol 2). • c. Additionally, to test the ability of the pigment to recover after being treated with our drugs, all embryos were treated at 24 hpf with the chemicals until the 48 hpf or 64 hpf time period, then washed with water to remove the treatment. The embryos were again monitored and imaged throughout their development relative to a control group to which water was administered (Protocol 3).
# (§2) The black pigment (or melanin) is very easy to observe in zebrafish. In brief, adult zebrafish are taken to breed embryos. Morphologically normal embryos of 24 hours post fertilization (hpf) stage were selected for incubation in the drugs from 24 to 76 hours. During the incubation, the embryos are monitored and imaged (see FIGS. 1 and 3) to track the development of melanin. […] To broaden the comparison with other skin-whitening products, this project can also test at least three other compounds, Kojic acid, Gallic acid and Haginin. […] In the meantime, the whole organism context also allows us to examine the toxicological profile, if any, of these compounds.
# [2] = system: B16-F10 melanoma cells; experiment: Melanin in melanoma cells; format: cell-based, mouse; conditions: for Melanin: melanoma cells
# From the text: (MEK-I is a known MEK inhibitor as a comparison purchased from Sigma): […]
# [3] = system: B16-F10 melanoma cells; experiment: cells; format: cell-based
# [4] = system: zebrafish embryos; experiment: Skin Lightening Efficacy of All Analogs on Zebrafish Embryos (Table 1); format: in vivo
# Method: as §1, §2
# [5] = system: zebrafish embryos; experiment: Effect on existing melanin and/or melanocytes, embryos treated at 48 hpf (Protocol 2); format: in vivo
# Method: (§3) The testing protocols for these compounds are as follows: • a. […] The embryos were monitored and imaged throughout their development to track the development of melanin pigment relative to a control group to which water was administered (Protocol 1). • b. To test the effects of the drugs on existing melanin and/or melanocytes, the embryos were treated with the chemicals at 48 hpf, after pigment had developed. The embryos were again monitored and imaged throughout their development relative to a control group to which water was administered (Protocol 2). • c. Additionally, to test the ability of the pigment to recover after being treated with our drugs, all embryos were treated at 24 hpf with the chemicals until the 48 hpf or 64 hpf time period, then washed with water to remove the treatment. The embryos were again monitored and imaged throughout their development relative to a control group to which water was administered (Protocol 3).
# To test the effects of the drugs on existing melanin and/or melanocytes, the embryos were treated with the chemicals A11, MEK-I and PTU at 48 hpf, after pigment had developed. The embryos were again monitored and imaged throughout their development according to Protocol 2.
# [6] = system: zebrafish embryos; experiment: Toxicity in developing zebrafish embryos
# Method: as §2
# [7] = system: zebrafish embryos; experiment: Pigment recovery after compound withdrawal (Protocol 3); format: in vivo; conditions: treated 24-48 hpf or 24-64 hpf, then washed; by 72 hpf
# Method: as §3
# It has been reported that melanin usually reappears after the withdrawal of skin whitening products. […] The pigmentation was monitored closely for 48-72 hours. Similarly, this experiment was repeated at least three times to gain a reproducible result.
# [8] = system: DCT (dopachrome tautomerase); experiment: RT-qPCR of DCT in melanoma cells; format: cell-based, mouse
# From the text: (§4) To understand how A11 inhibits melanoma proliferation, we examined the MITF expression level in A11-treated B16-F10 cells by western blot and RT-qPCR.
# (§5) The results of several qPCR experiments using melanoma cells were compiled in FIG. 20. Pax3 and sox10 are genes determine the melanocyte precursors while mit-f is the specific transcription factor that initiates melanocyte differentiation. Dct and tyr genes are expressed in differentiated melanocytes. […] The decrease in magnitude is not significant likely due to the very heterogeneous cell types in melanoma.
# [9] = system: MITF; experiment: Western blot for MITF protein level in B16-F10 cells; format: cell-based, mouse; conditions: western blot vs DMSO control (FIG. 21)
# From the text: as §4
# [10] = system: MITF; experiment: RT-qPCR of MITF (mit-f) in melanoma cells; format: cell-based, mouse
# From the text: as §4, §5
# [11] = system: MAPK; experiment: Western blot for phosphorylated MAPK in melanoma cells; format: cell-based, mouse; conditions: melanoma cells (FIG. 19A)
# From the text: We wanted to further understand the molecular mechanism of A11 and its derivatives by examining the activities of MAPK, Akt, and PRPP pathways which regulate cell proliferation and cell death.
# MAPK is involved in the major cell proliferation signaling pathway. In many cancer cells, MAPK is activated at high level by phosphorylation. Using the anti-phosphorylated-MAPK (p-MAPK) on western blot, it is very easy to understand the proliferation ability in cells. […] While the results are against our hypothesis and current understanding, it raises a very interesting mechanism of A11 which requires further investigation. […] The current understanding is that activated MAPK and Akt both lead to cell proliferation.
# [12] = system: tyrosinase; experiment: RT-qPCR of tyrosinase in melanoma cells; format: cell-based, mouse
# From the text: as §4, §5
# [13] = system: Pax3; experiment: RT-qPCR of Pax3 in melanoma cells; format: cell-based, mouse
# From the text: as §4, §5
# [14] = system: MEK; experiment: MEK activity (FIG. 12)
# From the text: FIG. 12 are photo illustrations of MEK activity with exemplary embodiments of the human drug treatments of the present invention; and
# (§6) The intracellular signaling pathway that involves Raf and MEK is known to be the major pathway to regulate cell proliferation. Many current melanoma drugs such as cobimetinib works by inhibiting Raf or MEK. While they are effective in inhibiting melanoma growth, they exert different degrees of side effect on normal cells by inhibiting the Raf-MEK pathway. […] Also, with regard to FIG. 13, the compound SK-03-92 is shown to inhibit melanoma cell growth by approximately 10% at 10 μM and at 100% at 40 μM.
# [15] = system: transgenic melanoma zebrafish embryos; experiment: Melanoma formation and recovery in transgenic melanoma zebrafish embryos; format: in vivo
# Method: as §6
compound,measurement,setting,value
CC1=C(/C=C/C(C)=C/C=C/C(C)=C/C(=O)O)C(C)(C)CCC1 [Tretinoin],pigmentation in comparison to the control group,[1]; 0.1%,80%
COc1cc(O)cc(/C=C/Sc2ccccc2)c1 [CL4],Melanin,[2]; 10 μM,107%
same,Average Melanoma growth (from the previous chart),[3]; 10 μM,93%
same,Growth,"[3]; melanoma cells, 10 μM",93%
same,Pigmentation,[4]; concentration not given,0%
NC(=O)c1cccnc1 [Niacinamide],pigmentation in comparison to the control group,[1]; 1%,10%
COc1cc(/C=C/Oc2ccccc2)cc(OC)c1 [CL2],Pigmentation,[4]; concentration not given,5%
OC[C@H]1O[C@@H](Oc2ccc(O)cc2)[C@H](O)[C@@H](O)[C@@H]1O [Arbutin],pigmentation in comparison to the control group,[1]; 100 μM,30%
COc1cc(O)cc(/C=C/n2ncc3ccccc32)c1 [SK0954],Pigmentation,[4]; concentration not given,0%
COc1cc(O)cc(/C=C/Oc2cccc(C)c2)c1 [Analog A9],Melanin,[2]; 10 μM,101%
same,Melanin,[2]; 40 μM,96%
same,Average Melanoma growth (from the previous chart),[3]; 10 μM,78%
same,Average Melanoma growth (from the previous chart),[3]; 40 μM,76%
same,Growth,"[3]; melanoma cells, 10 μM",78%
same,Growth,"[3]; melanoma cells, 40 μM",76%
same,Pigmentation,[4]; concentration not given,10%
"NC(=S)Nc1ccccc1 [PTU, phenylthiourea, reference compound]",effect on existing pigment (in words),[5],remove existing pigment
same,existing pigment remaining,[5],20%
same,toxicity in embryos (in words),[6]; developing zebrafish embryos,various levels of toxicity
same,Melanin,[2]; concentration not given,59% and 67% and 89% and 64%
same,Average Melanoma growth (from the previous chart),[3]; concentration not given,107%
same,Growth,"[3]; melanoma cells, concentration not given",87% and 107% and 128% and 106%
same,pigmentation recovered after wash-off,[7],100%
same,pigmentation inhibition (in words),[1]; zebrafish embryos treated 24-76 hpf,nearly complete pigmentation loss
same,Pigmentation,"[1]; zebrafish embryos treated 24-76 hpf, 0.003%",10%
COc1cc(O)cc(/C=C/Oc2cccc(OC)c2)c1 [Analog A8],Pigmentation,[4]; concentration not given,10%
COc1cc(O)cc(/C=C/Oc2ccccc2)c1 [CL1],Pigmentation,[4]; 40 uM,0% (40 uM)
COc1cc(O)cc(/C=C/Sc2ccccc2C(C)C)c1 [SK0501],Pigmentation,[4]; concentration not given,0%
COc1cc(O)cc(/C=C/c2cccs2)c1 [CL6],Pigmentation,[4]; concentration not given,0%
COc1cc(O)cc(/C=C/n2ccc3ccccc32)c1 [SK0953],Melanin,[2]; 20 μM,96%
same,Average Melanoma growth (from the previous chart),[3]; 20 μM,71%
same,Growth,"[3]; melanoma cells, 20 μM",71%
same,Pigmentation,[4]; concentration not given,0%
COc1ccc(S/C=C/c2cc(O)cc(OC)c2)cc1 [SK0503],Pigmentation,[4]; concentration not given,0%
"N#CC(=C(N)Sc1ccccc1N)C(C#N)=C(N)Sc1ccccc1N [MEK-I, reference compound]",DCT expression (in words),[8],decreased
same,effect on existing pigment (in words),[5],has no effect; also recorded: ineffective
same,toxicity in embryos (in words),[6]; developing zebrafish embryos,various levels of toxicity; also recorded: Notocord toxicity is present
same,Melanin,[2]; 10 μM,104% and 78% and 94%
same,Melanin,[2]; 20 μM,82% and 84%
same,MITF protein level (in words),[9],high level of MITF
same,Average Melanoma growth (from the previous chart),[3]; 10 μM,67%
same,Average Melanoma growth (from the previous chart),[3]; 20 μM,35%
same,Growth,"[3]; melanoma cells, 10 μM",72% and 62%
same,MITF (mit-f) mRNA expression (in words),[10],no effect on the MITF transcription
same,pigmentation recovered after wash-off,[7],100%
same,amount of p-MAPK / MAPK activity (in words),[11],effectively suppresses the amount of p-MAPK
same,tyrosinase expression (in words),[12],decreased
same,Pax3 expression (in words),[13],increases Pax3 transcription
same,Pigmentation,"[1]; zebrafish embryos treated 24-76 hpf, 10 μM",60%
COc1cc(O)cc(/C=C/n2ccc(C(F)(F)F)n2)c1 [SK0951],Pigmentation,[4]; concentration not given,0%
"COc1cc(O)cc(/C=C/c2cc3ccccc3s2)c1 [SK0392, (E)-3-(2-(Benzo[b]thiophen-2-yl)vinyl)-5-methoxyphenol]",toxicity in embryos (in words),"[6]; zebrafish, in vivo",almost no detectable toxicity
same,Melanin,[2]; 10 μM,97%
same,melanin in B16-F10 cells (in words),[2]; mouse cell line B16-F10,decrease of melanin
same,Average Melanoma growth (from the previous chart),[3]; 10 μM,100%
same,inhibition at 10 µM,"[3]; Mus musculus, B16-F10, 10 μM (FIG. 13), read-out: inhibition of melanoma cell growth",~10%
same,inhibition at 40 µM,"[3]; Mus musculus, B16-F10, 40 μM (FIG. 13), read-out: inhibition of melanoma cell growth",100%
same,inhibition of melanoma cell growth / cell number (in words),[3]; melanoma cells,decrease of melanin as well as the cell number
same,Growth,"[3]; melanoma cells, 10 μM",100%
same,MEK activity (in words),[14],increasing MEK activity
same,formation and recovery of melanoma (in words),[15],inhibited the formation and recovery of melanoma
same,Pigmentation,[4]; 50 uM,20% (50 uM)
